Source: patent US10004762B2, “Dialysis formulation” (Gambro Lundia AB, priority 2013, dated 2018)
Where two headings read alike, the source gives them in different places.

Key:
[1] = Loss of trace elements during 24 h CRRT treatment (FIG. 5A-5B); settings: patients with CRRT (acute dialysis treatment)
[2] = Loss of trace elements during hemodialysis (HD) treatment (FIG. 5C-5E); settings: HD patients (chronic dialysis treatment), 4 hours of HD
[3] = Trace element concentrations in effluent of hemodialysis patients (ICP-MS); settings: effluent from HD patients at the end of dialysis session
Experimental: (§1) Trace element concentrations have been analyzed in effluent obtained from hemodialysis (HD) patients at the end of their dialysis session.
(§2) In the study participated 47 hemodialysis patients. […] All patients received dialysis 3-5 h, 3-4 times per week. Whole blood and plasma samples for trace element analysis were obtained pre- and post-midweek dialysis treatment in 6 ml trace element-free EDTA tubes (BD Vaccutainer®, Stockholm, Sweden). In addition effluent samples were taken post-treatment in 50 ml trace element-free tubes.
(§3) Analysis of all trace elements was performed by inductively coupled plasma-mass spectrometry (ICP-MS; Thermo X7, Thermo Elemental, Winsford, UK). For plasma and blood a sample volume of 250 μL was diluted 10 times with an alkaline solution according to Bárány et al. The effluent was analysed in acidic condition, i.e. concentrated nitric acid (HNO3) was added to the samples to a final concentration of 2%. Using the dilute solution or 2% HNO3 as a carrier/rinsing fluid, the samples were introduced in a segment-flow mode.

[4] = Trace element analysis in plasma and whole blood of HD patients and healthy controls (ICP-MS); settings: for P2 plasma sample post-dialysis ± SEM / P1 plasma sample pre-dialysis ± SEM / B2 whole blood sample post-dialysis ± SEM / B1 whole blood sample pre-dialysis ± SEM: all HD patients; for P control ± SEM / B control ± SEM: healthy controls; for B2 whole blood sample post-dialysis ± SEM / B1 whole blood sample pre-dialysis ± SEM / B control ± SEM: whole blood; for increase of concentration during dialysis: plasma and whole blood, HD patients (FIG. 2)
Experimental: (§4) In the study participated 47 hemodialysis patients. These 47 hemodialysis patients (34 female and 13 male), were divided into 30 non-diabetic and 17 with diabetes mellitus, with an average age of 67 (Table 1). All patients received dialysis 3-5 h, 3-4 times per week. Whole blood and plasma samples for trace element analysis were obtained pre- and post-midweek dialysis treatment in 6 ml trace element-free EDTA tubes (BD Vaccutainer®, Stockholm, Sweden). […] In addition, the same samples were taken at one occasion from a healthy control group. The control group included 51 persons (20 female and 31 male), with an average age of 22.
as §3

[5] = human, in vivo
Experimental: as §1, §2, §3

[6] = human, in vivo; remark: listed apart in the source
Experimental: as §4, §3

[7] = in vivo
[8] = in vivo; remark: listed apart in the source

Compound | Effluent concentration ± SD [5] [µM] | B1 whole blood sample pre-dialysis ± SEM [6] [µg/L] | B2 whole blood sample post-dialysis ± SEM [6] [µg/L] | B control ± SEM [6] [µg/L] | P1 plasma sample pre-dialysis ± SEM [6] [µg/L] | P2 plasma sample post-dialysis ± SEM [6] [µg/L] | actual loss during 24 hours of CRRT [7] | actual loss during 24 hours of CRRT [1] | Effluent concentration ± SD [3] [µM] | P2 plasma sample post-dialysis ± SEM ([4]; plasma) [µg/L] | P1 plasma sample pre-dialysis ± SEM ([4]; plasma) [µg/L] | B2 whole blood sample post-dialysis ± SEM [4] [µg/L] | B1 whole blood sample pre-dialysis ± SEM [4] [µg/L] | P control ± SEM ([4]; plasma) [µg/L] | B control ± SEM [4] [µg/L] | actual loss / removal during HD treatment [8] | further results
[Mn+2] [Manganese] |  |  |  |  |  |  |  | significant loss | 0.005 ± 0.005 | 3.4 ± 0.9 | 0.8 ± 0.03 | 19.3 ± 1.4 | 17 ± 1.3 | 0.7 ± 0.02 | 9.2 ± 0.4 |  | actual loss / removal during HD treatment [2]: no manganese removal at all but rather an uptake; B1 whole blood sample pre-dialysis ± SEM ([4]; listed as Mn): 17.0 ± 1.1 µg/L; blood concentration post-dialysis ([4]; diabetic HD patients): 20 ± 2.7 ng/mL; blood concentration pre-dialysis ([4]; diabetic HD patients): 17 ± 2.1 ng/mL; B control ± SEM ([4]; listed as Mn): 9.2 ± 0.4 µg/L; blood concentration post-dialysis ([4]; non-diabetic HD patients): 19 ± 1.4 ng/mL; blood concentration pre-dialysis ([4]; non-diabetic HD patients): 17 ± 1.3 ng/mL
[Cr] [Chromium] |  |  |  |  |  |  |  | significant loss | 0.0043 ± 0.008 | 5.2 ± 0.6 | 3.3 ± 0.3 | 3.4 ± 0.4 | 2.1 ± 0.2 | 0.3 ± 0.02 | 0.3 ± 0.02 |  | P1 plasma sample pre-dialysis ± SEM ([4]; plasma, listed as Cr): 3.3 ± 0.3 µg/L; plasma concentration post-dialysis ([4]; diabetic HD patients): 2.5 ± 0.4 ng/mL; P control ± SEM ([4]; plasma, listed as Cr): 0.3 ± 0.02 µg/L; plasma concentration post-dialysis ([4]; non-diabetic HD patients): 3.8 ± 0.4 ng/mL; increase of concentration during dialysis [4]: up to 60%
Cobalt |  |  |  |  |  |  |  | significant loss | 0.0015 ± 0.002 | 0.6 ± 0.1 | 0.6 ± 0.03 | 0.5 ± 0.03 | 0.5 ± 0.02 | 0.4 ± 0.02 | 0.3 ± 0.01 |  | P1 plasma sample pre-dialysis ± SEM ([4]; plasma, listed as Co): 0.6 ± 0.03 µg/L; P control ± SEM ([4]; plasma, listed as Co): 0.4 ± 0.02 µg/L; increase in plasma concentration during dialysis ([4]; plasma, diabetic and non-diabetic HD patients): ~15%
Zinc |  |  |  |  |  |  |  | some subjects show a uptake of zinc (negative loss) while others show loss of zinc | 0.017 ± 0.01 | 685 ± 17 | 644 ± 13 | 5842 ± 131 | 5610 ± 138 | 719 ± 17 | 5189 ± 124 |  | actual loss / removal during HD treatment [2]: removal of those trace elements in a majority of the patients; B1 whole blood sample pre-dialysis ± SEM ([4]; listed as Zn): 5610 ± 138 µg/L; B control ± SEM ([4]; listed as Zn): 5189 ± 124 µg/L; increase of concentration during dialysis [4]: ~5%
[Se] [Selenium] |  |  |  |  |  |  | significant loss |  |  |  |  |  |  |  |  | significant removal of selenium in most patients | Effluent concentration ± SD ([5]; both): 0.01 ± 0.005 µM; B1 whole blood sample pre-dialysis ± SEM ([6]; both): 66 ± 2 µg/L; B2 whole blood sample post-dialysis ± SEM ([6]; both): 68 ± 2 µg/L; B control ± SEM ([6]; both): 102 ± 3 µg/L; P1 plasma sample pre-dialysis ± SEM ([6]; both): 53 ± 2 µg/L; P2 plasma sample post-dialysis ± SEM ([6]; both): 55 ± 2 µg/L; P control ± SEM ([6]; both): 81 ± 1.9 µg/L

Continued, in another order:

Effluent concentration ± SD [5] [µM] | B1 whole blood sample pre-dialysis ± SEM [6] [µg/L] | B2 whole blood sample post-dialysis ± SEM [6] [µg/L] | B control ± SEM [6] [µg/L] | P1 plasma sample pre-dialysis ± SEM [6] [µg/L] | P2 plasma sample post-dialysis ± SEM [6] [µg/L] | actual loss during 24 hours of CRRT [7] | Compound | actual loss during 24 hours of CRRT [1] | Effluent concentration ± SD [3] [µM] | P2 plasma sample post-dialysis ± SEM ([4]; plasma) [µg/L] | P1 plasma sample pre-dialysis ± SEM ([4]; plasma) [µg/L] | B2 whole blood sample post-dialysis ± SEM [4] [µg/L] | B1 whole blood sample pre-dialysis ± SEM [4] [µg/L] | P control ± SEM ([4]; plasma) [µg/L] | B control ± SEM [4] [µg/L] | actual loss / removal during HD treatment [8] | further results
0.026 ± 0.015 | 855 ± 18 | 882 ± 17 | 861 ± 27 | 1113 ± 33 | 1178 ± 29 | significant loss | [Cu] [Copper] |  |  |  |  |  |  |  |  | removal of those trace elements in a majority of the patients | increase of concentration during dialysis [6]: ~4%; plasma concentration [6]: 1173 ± 56 ng/mL
0.003 ± 0.002 | 2.0 ± 0.2 | 1.0 ± 0.1 | 0.6 ± 0.1 | 2.6 ± 0.2 | 1.3 ± 0.1 | significant loss | [Mo] [Molybdenum] |  |  |  |  |  |  |  |  |  | P control ± SEM [6]: 0.8 ± 0.1 µg/L; decrease of concentration during dialysis [6]: ~50%; plasma concentration post-dialysis [6]: 1.2 ± 0.2 ng/mL; plasma concentration pre-dialysis [6]: 3.1 ± 0.4 ng/mL; reduction of plasma concentration during dialysis [6]: 50%
0.31 ± 0.17 | 972 ± 30 | 974 ± 30 | 1966 ± 51 | 187 ± 5 | 150 ± 4 | large loss | [Rb] [Rubidium] |  |  |  |  |  |  |  |  | significant removal of rubidium in a majority of the patients | P control ± SEM [6]: 271 ± 5 µg/L; decrease of plasma concentration during dialysis [6]: ~20%
